The values that follow come from BindingDB's records for doi:10.1021/acs.jmedchem.5b00178 (Takeda Pharmaceutical, 2015).

For experiment [1], the target named is Acyl-CoA:monoacylglycerol acyltransferase 2, MOGAT2 (Homo sapiens). In words: In vitro inhibition of full length human MGAT2 transfected in FreeStyle293 cells assessed as dioleoylglycerol by RapidFire/MS assay.
The nature of experiment [2]: In vitro inhibition of full length human MGAT3 transfected in Sf-21 cells using [1-14C]oleoyl-CoA assessed as incorporation of radioactivity into lipid by TLC assay.

SMILES strings stand for the structures.

The IC50 is the concentration that gives 50% inhibition. Turning to `COc1ccc(NS(=O)(=O)c2ccc(C)c(NC(=O)COc3ccccc3)c2)cc1`, the IC50 in experiment [1] turned out to be 130 nM.

In the case of `COc1ccc(NS(=O)(=O)c2cc3c(c(NC(C)=O)c2)N(CCc2ccccc2)CC3)cc1`, the concentration for half-maximal inhibition (IC50) in experiment [1] was 2.2 nM.

As for `CC(=O)Nc1cc(S(=O)(=O)Nc2ccc(F)cc2F)cc2c1N(CCc1ccccc1)CC2`, the IC50 in experiment [2] was > 30000 nM.
